Measured values as given in patent US20250230193A1, “CYCLIC COMPOUND HAVING SELECTIVE KRAS INHIBITORY EFFECT ON HRAS AND NRAS” (CHUGAI SEIYAKU KABUSHIKI KAISHA, priority 2022, published 2025).

How the values were obtained:
[1] = target: GDP-bound HRAS wild-type protein (Homo sapiens, UniProt P01112); test: Binding to HRAS by surface plasmon resonance (SPR), Single Cycle Kinetics; settings: SPR; KD ratio class
[2] = target: GDP-bound NRAS wild-type protein (Homo sapiens, UniProt P01111); test: Binding to NRAS by surface plasmon resonance (SPR), Single Cycle Kinetics; settings: SPR; KD ratio class
[3] = system: human lung cancer strain NCI-H441; test: cells; settings: NCI-H441, 96 h, read-out: NCI-H441 IC50 (nM)

Sequence of GDP-bound NRAS wild-type protein (P01111 whole entry): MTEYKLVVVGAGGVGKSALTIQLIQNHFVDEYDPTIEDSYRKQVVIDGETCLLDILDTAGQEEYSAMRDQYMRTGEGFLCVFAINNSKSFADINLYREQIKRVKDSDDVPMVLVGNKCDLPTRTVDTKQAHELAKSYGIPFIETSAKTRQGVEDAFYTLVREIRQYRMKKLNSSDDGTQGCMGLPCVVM
Sequence of GDP-bound HRAS wild-type protein (P01112 whole entry): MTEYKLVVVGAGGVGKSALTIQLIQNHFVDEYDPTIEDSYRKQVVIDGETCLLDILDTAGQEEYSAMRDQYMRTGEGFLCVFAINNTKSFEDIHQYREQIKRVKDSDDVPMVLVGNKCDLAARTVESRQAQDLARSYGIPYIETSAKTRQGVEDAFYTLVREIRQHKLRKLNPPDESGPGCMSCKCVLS

Structure (SMILES)	HRAS/KRAS (ratio of KD value for GDP-bound HRAS wild-type protein to KD value for KRAS) [1]	NRAS/KRAS (ratio of KD value for GDP-bound NRAS wild-type protein to KD value for KRAS) [2]	IC50 [3] [nM]
CCC[C@H]1C(=O)N[C@@H]([C@@H](C)CC)C(=O)N(C)CC(=O)N(C)[C@H]2C/C=C\CCN(C2=O)[C@@H](Cc2ccc(C(F)(F)F)cc2)C(=O)N(C)CC(=O)N[C@@H](CCc2cc(F)c(C(F)(F)F)c(F)c2)C(=O)N2C[C@H](OCC)C[C@H]2C(=O)NC2(CCC2)C(=O)N(C)[C@@H](C2CCCC2)C(=O)N(C)[C@H](C(=O)N2CCCCC2)CC(=O)N1C [PP1294]	A (a compound having 10 or more and less than 20 is denoted as A)	A (a compound having 10 or more and less than 20 is denoted as A)	10
CCO[C@@H]1C[C@H]2C(=O)NC3(CCC3)C(=O)N(C)[C@@H](C3CCCC3)C(=O)N(C)[C@H](C(=O)N3CCC3)CC(=O)N(C)[C@@H](CC)C(=O)N[C@@H]([C@@H](C)CC)C(=O)N(C)CC(=O)N(C)[C@H]3C/C=C\CCN(C3=O)[C@@H](CC3CCCCC3)C(=O)N(C)CC(=O)N[C@@H](CCc3cc(F)c(C(F)(F)F)c(F)c3)C(=O)N2C1 [PP1445]	A (a compound having 10 or more and less than 20 is denoted as A)	A (a compound having 10 or more and less than 20 is denoted as A)	92.8
CCO[C@@H]1C[C@H]2C(=O)NC3(CCC3)C(=O)N(C)[C@@H](C3CCCC3)C(=O)N(C)[C@H](C(=O)N(C)C)CC(=O)N(C)[C@@H](CC3CC3)C(=O)N[C@@H]([C@@H](C)CC)C(=O)N(C)CC(=O)N(C)[C@H]3C/C=C\CCN(C3=O)[C@@H](Cc3ccc(F)cc3)C(=O)N(C)CC(=O)N[C@@H](CCc3ccc4sccc4c3)C(=O)N2C1 [PP1426]	B (a compound having 3 or more and less than 10 is denoted as B)	A (a compound having 10 or more and less than 20 is denoted as A)	475
CCO[C@@H]1C[C@H]2C(=O)NC3(CCC3)C(=O)N(C)[C@@H](C(CC)CC)C(=O)N(C)[C@H](C(=O)N(C)C)CC(=O)N(C)[C@@H](COC)C(=O)N[C@@H]([C@@H](C)CC)C(=O)N(C)CC(=O)N(C)[C@H]3C/C=C\CCN(C3=O)[C@@H](Cc3ccc(C(F)(F)F)cc3)C(=O)N(C)CC(=O)N[C@@H](CCc3ccc4sccc4c3)C(=O)N2C1 [PP1229]	A (a compound having 10 or more and less than 20 is denoted as A)	A (a compound having 10 or more and less than 20 is denoted as A)	144
CCO[C@@H]1C[C@H]2C(=O)NC3(CCC3)C(=O)N(C)[C@@H](C(CC)CC)C(=O)N(C)[C@H](C(=O)N(C)C)CC(=O)N(C)[C@@H](CC(C)C)C(=O)N[C@@H]([C@@H](C)CC)C(=O)N(C)CC(=O)N(C)[C@H]3C/C=C\CCN(C3=O)[C@@H](Cc3ccc(C(F)(F)F)cc3)C(=O)N(C)CC(=O)N[C@@H](CCc3cc(F)c(Cl)c(F)c3)C(=O)N2C1 [PP1232]	A (a compound having 10 or more and less than 20 is denoted as A)	A (a compound having 10 or more and less than 20 is denoted as A)	59.7
CCC[C@H]1C(=O)N[C@@H]([C@@H](C)CC)C(=O)N(C)CC(=O)N(C)[C@H]2C/C=C\CCN(C2=O)[C@@H](Cc2ccc(C(F)(F)F)cc2)C(=O)N(C)CC(=O)N[C@@H](CCc2ccc(Cl)c(Cl)c2)C(=O)N2C[C@H](OCC)C[C@H]2C(=O)NC2(CCC2)C(=O)N(C)[C@@H](C(CC)CC)C(=O)N(C)[C@H](C(=O)N(C)C)CC(=O)N1C [PP1216]	A (a compound having 10 or more and less than 20 is denoted as A)	AA (a compound having 20 or more is denoted as AA)	19.8
CC[C@H](C)[C@@H]1NC(=O)[C@H](CC)N(C)C(=O)C[C@@H](C(=O)N2CCOCC2)N(C)C(=O)[C@H](C2CCCC2)N(C)C(=O)C2(CCCC2)NC(=O)[C@@H]2CCCN2C(=O)[C@H](CCc2ccc(C(F)(F)F)c(Cl)c2)NC(=O)CN(C)C(=O)[C@H](Cc2ccc(C(F)(F)F)cc2)N2C[C@H](C)CC[C@@H](C2=O)N(C)C(=O)CN(C)C1=O [PP1337]	B (a compound having 3 or more and less than 10 is denoted as B)	B (a compound having 3 or more and less than 10 is denoted as B)	29.8
CCO[C@@H]1C[C@H]2C(=O)NC3(CCC3)C(=O)N(C)[C@@H](C(CC)CC)C(=O)N(C)[C@H](C(=O)N(C)C)CC(=O)N(C)[C@@H](COC)C(=O)N[C@@H]([C@@H](C)CC)C(=O)N(C)CC(=O)N(C)[C@H]3C/C=C\CCN(C3=O)[C@@H](Cc3ccc(C(F)(F)F)cc3)C(=O)N(C)CC(=O)N[C@@H](CCc3ccc(Cl)c(Cl)c3)C(=O)N2C1 [PP1221]	A (a compound having 10 or more and less than 20 is denoted as A)	AA (a compound having 20 or more is denoted as AA)	40.6
CCO[C@@H]1C[C@H]2C(=O)NC3(CCC3)C(=O)N(C)[C@@H](C3CCCC3)C(=O)N(C)[C@H](C(=O)N3CCOCC3)CC(=O)N(C)[C@@H](CC3CCCCC3)C(=O)N[C@@H]([C@@H](C)CC)C(=O)N(C)CC(=O)N(C)[C@H]3C/C=C\CCN(C3=O)[C@@H](Cc3ccc(C(F)(F)F)cc3)C(=O)N(C)CC(=O)N[C@@H](CCc3cc(F)c(C(F)(F)F)c(F)c3)C(=O)N2C1 [PP1418]	A (a compound having 10 or more and less than 20 is denoted as A)	AA (a compound having 20 or more is denoted as AA)	29.9
CCO[C@@H]1C[C@H]2C(=O)NC3(CCC3)C(=O)N(C)[C@@H](C(CC)CC)C(=O)N(C)[C@H](C(=O)N(C)C)CC(=O)N(C)[C@@H](CC3CCCC3)C(=O)N[C@@H]([C@@H](C)CC)C(=O)N(C)CC(=O)N(C)[C@H]3C/C=C\CCN(C3=O)[C@@H](Cc3ccc(C(F)(F)F)cc3)C(=O)N(C)CC(=O)N[C@@H](CCc3ccc(Cl)c(Cl)c3)C(=O)N2C1 [PP1220]	A (a compound having 10 or more and less than 20 is denoted as A)	AA (a compound having 20 or more is denoted as AA)	22.2
CCO[C@@H]1C[C@H]2C(=O)NC3(CCCC3)C(=O)N(C)[C@@H](C3CCCC3)C(=O)N(C)[C@H](C(=O)N3CCOCC3)CC(=O)N(C)[C@@H](CC)C(=O)N[C@@H]([C@@H](C)CC)C(=O)N(C)CC(=O)N(C)[C@H]3C[C@@H](C)[C@@H](C)CN(C3=O)[C@@H](Cc3ccc(C(F)(F)F)cc3)C(=O)N(C)CC(=O)N[C@@H](CCc3ccc(C(F)(F)F)c(Cl)c3)C(=O)N2C1 [PP1359]	B (a compound having 3 or more and less than 10 is denoted as B)	A (a compound having 10 or more and less than 20 is denoted as A)	3.2
CCO[C@@H]1C[C@H]2C(=O)NC3(CCC3)C(=O)N(C)[C@@H](C3CCCC3)C(=O)N(C)[C@H](C(=O)N3CCOCC3)CC(=O)N(C)[C@@H](CC(C)C)C(=O)N[C@@H]([C@@H](C)CC)C(=O)N3CC[C@H]3C(=O)N(C)[C@H]3CC[C@@H](C)CN(C3=O)[C@@H](Cc3ccc(C(F)(F)F)cc3)C(=O)N(C)CC(=O)N[C@@H](CCc3ccc(C(F)(F)F)c(Cl)c3)C(=O)N2C1 [PP1379]	B (a compound having 3 or more and less than 10 is denoted as B)	A (a compound having 10 or more and less than 20 is denoted as A)	10.3
CC[C@H](C)[C@@H]1NC(=O)[C@H](CC)N(C)C(=O)C[C@@H](C(=O)N(C)C)N(C)C(=O)[C@H](C2CCCC2)N(C)C(=O)C2(CCCC2)NC(=O)[C@@H]2CCCN2C(=O)[C@H](CCc2cc(F)c(C(F)(F)F)c(F)c2)NC(=O)CN(C)C(=O)[C@H](Cc2ccc(C(F)(F)F)cc2)N2CC(C)[C@@H](C)C[C@@H](C2=O)N(C)C(=O)CN(C)C1=O (stereo partly drawn) [PP1349]	B (a compound having 3 or more and less than 10 is denoted as B)	C (A compound having a KD ratio of 0.1 or more and less than 3 is denoted as C)	14.7
CCO[C@@H]1C[C@H]2C(=O)NC3(CCCCC3)C(=O)N(C)[C@@H](C3CCCC3)C(=O)N(C)[C@H](C(=O)N(C)C)CC(=O)N(C)[C@@H](CC)C(=O)N[C@@H]([C@@H](C)CC)C(=O)N(C)CC(=O)N(C)[C@H]3C/C=C\CCN(C3=O)[C@@H](Cc3ccc(C(F)(F)F)cc3)C(=O)N(C)CC(=O)N[C@@H](CCc3cc(F)c(C(F)(F)F)c(F)c3)C(=O)N2C1 [PP1277]	A (a compound having 10 or more and less than 20 is denoted as A)	A (a compound having 10 or more and less than 20 is denoted as A)	79.8
